Here are results for 3 compounds from patent US20250360215A1, “PHARMACEUTICAL COMBINATIONS AND METHODS FOR PREVENTING OR TREATING NEURODEGENERATIVE DISEASES” (National Health Research Institutes, priority 2022, published 2025).

For experiment [1], the system named is Aβ42-treated 3T3-L1 cells. In words: UCP1 and PPARγ2 levels in MDI-induced, Aβ42-treated 3T3-L1 cells (screening of combination drugs). The following applies: MDI-induced differentiated 3T3-L1 adipocytes treated with Aβ42 (FIG. 5).
Experiment [2] relates to 3T3-L1 cells. The experiment in a line: ApoE gene expression and LXR signaling protein levels in 3T3-L1 cells treated with Aβ peptides. It counts as cell-based, mouse. The procedure:
FIGS. 4E and 4H show the result of Western blot of LXR signaling proteins in gWAT (FIG. 4E) or BAT (FIG. 4H) of wild-type (WT) mice and APP/PS1 (AD) mice (n=2). […] ABCA1: ATP binding cassette subfamily A member 1. PPAγ: peroxisome proliferator-activated receptor gamma. Actin, GAPDH (glyceraldehyde-3-phosphate dehydrogenase) and tubulin: internal controls, respectively.
The 3T3-L1 pre-adipocytes ([…], ATCC CL-173) were cultured in Dulbecco's modified Eagle medium (DMEM) (Invitrogen, USA). Cells were grown at 37° C. in a 5% CO2 humid atmosphere. The differentiation of 3T3-L1 cells into adipocyte-like cells was performed as follows. […]
Total RNAs from brain tissues or culture cells were extracted using the illustra RNAspin Mini RNA Isolation Kit (GE Healthcare Life Sciences) for reverse transcription with the High-Capacity cDNA Reverse Transcription Kits (ABI Applied Biosystems, USA) according to the manufacturer's instructions. The quantitative real-time reverse transcription-PCR analysis was performed using the Fast SYBR Green Master Mix (ABI Applied Biosystems, USA). Results were determined using respective standard curves calculations. […]

Experiment [3] concerns 3T3-L1 cells. The experiment in a line: Lipid droplet accumulation in 3T3-L1 adipocytes (3D imaging, HCS LipidTOX Red neutral lipid stain). In kind it is cell-based, mouse. The following applies: 1 μM peptide, 24 hours. The procedure:
(§1) FIGS. 3A to 3E show the increased lipid deposition induced by Aβ42.
Scale bar: 20 μm. […] FIGS. 6H and 6I show the HDL/T-Chol (FIG. 6H) and glucose (FIG. 6I) levels in plasma of APP/PS1 mice with or without thyroxine and pioglitazone. ** p<0.01. […] Tubulin, GAPDH (glyceraldehyde-3-phosphate dehydrogenase), and ponceau S: internal controls, respectively.
The 3T3-L1 pre-adipocytes ([…], ATCC CL-173) were cultured in Dulbecco's modified Eagle medium (DMEM) (Invitrogen, USA). Cells were grown at 37° C. in a 5% CO2 humid atmosphere. The differentiation of 3T3-L1 cells into adipocyte-like cells was performed as follows. A confluence of 70% of 3T3-L1 cells was induced with MDI induction medium (containing 500 μM 3-isobutyl-1-methylxanthine (IBMX), 1 μg/mL insulin, and 1 μM dexamethasone) for 3 days, followed by changing the medium to differentiation medium (10% fetal bovine serum (FBS) in DMEM). The differentiation medium was refreshed every two days. Full differentiation was achieved by day 8.
To exclude the possibility that the visceral adiposity was a secondary event caused by factors released from other tissues/organs, 3T3-L1 adipocytes were incubated with Aβ40 or Aβ42 to determine whether and which Aβ peptides to be potent in causing lipid accumulation in adipocytes.

Another experiment has as its system wild-type mice. In words: Aβ42 intraperitoneal injection into wild-type mice (lipid deposition). In kind it is in vivo, mouse. The following applies: WT mice, Aβ42 30 μg intraperitoneally three times at an interval of 3 days; 7 days after last injection. The method, then:
as §1
To assess whether the Aβ peptides were involved in lipid deposition in adipose tissues, Aβ42 (30 μg) was injected intraperitoneally into WT mice three times at an interval of 3 days.

In experiment [4] the test system is dementia in human population. The experiment in a line: Population-based retrospective matched cohort analysis of dementia risk (Taiwan NHIRD database). It counts as in vivo. The procedure:
To assess the potential for applying the combined drugs identified in Example 5 for therapeutic application in patients with dementia, a long-term follow-up retrospective analysis of human efficacy predictions was conducted by using National Health Research Institutes Database (NHRID) of Taiwan. Specifically, a […] matched cohort study was conducted to assess the effectiveness of the combined use of thyroid hormones and thiazolidinediones (TZDs) in reducing the risk of dementia, based on a dataset tracked 10,535 subjects with these two drugs for 10 years.

In the case of “Aβ42: amyloid β peptide Aβ42, used as inducer of lipid deposition”, in experiment [1], the PPARγ2 level entry is listed as “increased” and the UCP1 level entry is “decreased”. Further, the “protein levels of LXRα, PPARγ, ABCA1 and caveolin-1” value in the experiment with 3T3-L1 cells [2] (Western blot) is reported as “markedly decreased”. Also, the apoE gene expression entry in the experiment on 3T3-L1 cells [2] (qRT-PCR) is given as “markedly upregulated”. For the same compound, the “lipid droplet accumulation in adipocytes” value with 3T3-L1 cells [3] is recorded as “evidently stimulated”. In addition, in the experiment on wild-type mice, the “body weight and gWAT mass” value was “rapidly increased”.
Take “Aβ40: amyloid β peptide Aβ40, comparison peptide”: in the experiment on 3T3-L1 cells [3], the “lipid droplet accumulation in adipocytes” value is “not”.
Take `N[C@@H](Cc1cc(I)c(Oc2ccc(O)c(I)c2)c(I)c1)C(=O)O` [T3 only, triiodothyronine]: the “Incidence rate of dementia (per 1,000-person-year)” value in experiment [4] (Group 3: TZD + T3 vs T3 only, matched cohort) is reported as 10.17 per 1,000-person-year. The “reduction of the risk of getting dementia” value in experiment [4] (retrospective analysis, 10 years follow-up) turned out to be 21.7%.
